Experimental data: ChEMBL document CHEMBL4622868, “Design and synthesis of amphiphilic 2-hydroxybenzylphosphonium salts with antimicrobial and antitumor dual action” (Bioorg Med Chem Lett, 2020)
The source made the active and inactive calls. The rule behind the calls is not given here.

Legend:
[1] = tested on: Trichophyton mentagrophytes; experiment: Fungicidal activity against Trichophyton mentagrophytes; assay type: functional
[2] = Hemolytic activity against RBC (unknown origin) at 5 uM; assay type: ADME, cell-based, Erythrocyte; settings: red blood cells (erythrocytes); read-out: Activity
[3] = Hemolytic activity against RBC (unknown origin) at 120 uM; assay type: ADME, cell-based, Erythrocyte; settings: red blood cells (erythrocytes); read-out: Activity
Bacillus cereus [4] = experiment: Bactericidal activity against Bacillus cereus; assay type: functional
[5] = Hemolytic activity against RBC (unknown origin) at 40 uM; assay type: ADME, cell-based, Erythrocyte; settings: red blood cells (erythrocytes); read-out: Activity
Bacillus cereus [6] = experiment: Antibacterial activity against Bacillus cereus; assay type: functional
[7] = Biosurfactant activity assessed as critical micelle concentration of compound by tensiometry analysis; assay type: functional
Candida albicans [8] = experiment: Fungicidal activity against Candida albicans; assay type: functional
[9] = Selectivity index, ratio of IC50 for human Chang cells to IC50 for human PANC1 cells
Staphylococcus aureus [10] = experiment: Antibacterial activity against Staphylococcus aureus ATCC 209p; assay type: functional
[11] = Selectivity index, ratio of IC50 for human Chang cells to IC50 for human M-HeLa cells
[12] = Cytotoxicity against human Chang cells; assay type: cell-based
PANC-1 = experiment: Cytotoxicity against human PANC1 cells; assay type: functional, cell-based
[13] = Biosurfactant activity assessed as Critical micelle concentration of compound by conductometry analysis; assay type: physicochemical
Staphylococcus aureus [14] = experiment: Bactericidal activity against clinical isolate amoxicillin and ciprofloxacin resistance Staphylococcus aureus; assay type: functional
Staphylococcus aureus [15] = experiment: Bactericidal activity against clinical isolate amoxicillin resistance Staphylococcus aureus; assay type: functional
MCF7 = experiment: Cytotoxicity against human MCF7 cells; assay type: functional, cell-based
Candida albicans [16] = experiment: Antifungal activity against Candida albicans; assay type: functional
[17] = Hemolytic activity against RBC (unknown origin) at 10 uM; assay type: ADME, cell-based, Erythrocyte; settings: red blood cells (erythrocytes); read-out: Activity
[18] = tested on: Trichophyton mentagrophytes; experiment: Antifungal activity against Trichophyton mentagrophytes; assay type: functional
Staphylococcus aureus [19] = experiment: Antibacterial activity against clinical isolate amoxicillin resistance Staphylococcus aureus; assay type: functional
[20] = Hemolytic activity against RBC (unknown origin) at 480 uM; assay type: ADME, cell-based, Erythrocyte; settings: red blood cells (erythrocytes); read-out: Activity
[21] = Selectivity index, ratio of IC50 for human Chang cells to IC50 for human HepG2 cells
[22] = Hemolytic activity against RBC (unknown origin) at 240 uM; assay type: ADME, cell-based, Erythrocyte; settings: red blood cells (erythrocytes); read-out: Activity
M-HeLa [23] = experiment: Cytotoxicity against human M-HeLa cells; assay type: functional, cell-based
[24] = Hemolytic activity against RBC (unknown origin) at 60 uM; assay type: ADME, cell-based, Erythrocyte; settings: red blood cells (erythrocytes); read-out: Activity
Staphylococcus aureus [25] = experiment: Antibacterial activity against clinical isolate amoxicillin and ciprofloxacin resistance Staphylococcus aureus; assay type: functional
Staphylococcus aureus [26] = experiment: Bactericidal activity against Staphylococcus aureus ATCC 209p; assay type: functional
[27] = Selectivity index, ratio of IC50 for human Chang cells to IC50 for human MCF7 cells
[28] = Hemolytic activity against RBC (unknown origin) at 20 uM; assay type: ADME, cell-based, Erythrocyte; settings: red blood cells (erythrocytes); read-out: Activity
HepG2 = experiment: Cytotoxicity against human HepG2 cells; assay type: functional, cell-based; settings: read-out: IC50
[29] = Hemolytic activity against RBC (unknown origin) at 1 uM; assay type: ADME, cell-based, Erythrocyte; settings: red blood cells (erythrocytes); read-out: Activity
Staphylococcus aureus [30] = experiment: Antibacterial activity against Staphylococcus aureus ATCC 209p assessed as increase in crystal violet uptake at 2 uM incubated for 30 mins (reference value: 1.8 %); assay type: functional
M-HeLa [31] = experiment: Induction of mitochondrial membrane potential loss in human M-HeLa cells assessed as decrease in red fluorescence intensity at 3 uM by JC10 staining based flow cytometry analysis (reference value: 99.70 %); assay type: functional; design: scale not given: the % may be the effect or the level left
M-HeLa [32] = experiment: Induction of apoptosis in human M-HeLa cells assessed as early apoptotic cells at 6 uM incubated for 24 hrs by Annexin-V FITC and propidium iodide staining based flow cytometry analysis (reference value: 7.85 %); assay type: functional
M-HeLa [33] = experiment: Induction of apoptosis in human M-HeLa cells assessed as early apoptotic cells incubated for 24 hrs by Annexin-V FITC and propidium iodide staining based flow cytometry analysis; assay type: functional, cell-based
M-HeLa [34] = experiment: Induction of apoptosis in human M-HeLa cells assessed as late apoptotic cells at 6 uM incubated for 24 hrs by Annexin-V FITC and propidium iodide staining based flow cytometry analysis (reference value: 0.36 %); assay type: functional
M-HeLa [35] = experiment: Induction of apoptosis in human M-HeLa cells assessed as viable cells at 3 uM incubated for 24 hrs by Annexin-V FITC and propidium iodide staining based flow cytometry analysis (reference value: 90.48 %); assay type: functional; settings: read-out: Activity
M-HeLa [36] = experiment: Induction of mitochondrial membrane potential loss in human M-HeLa cells assessed as decrease in red fluorescence intensity at 6 uM by JC10 staining based flow cytometry analysis (reference value: 99.70 %); assay type: functional; design: scale not given: the % may be the effect or the level left
M-HeLa [37] = experiment: Induction of apoptosis in human M-HeLa cells assessed as early apoptotic cells at 3 uM incubated for 24 hrs by Annexin-V FITC and propidium iodide staining based flow cytometry analysis (reference value: 7.85 %); assay type: functional
M-HeLa [38] = experiment: Induction of apoptosis in human M-HeLa cells assessed as late apoptotic cells at 3 uM incubated for 24 hrs by Annexin-V FITC and propidium iodide staining based flow cytometry analysis (reference value: 0.36 %); assay type: functional
M-HeLa [39] = experiment: Induction of apoptosis in human M-HeLa cells assessed as necrotic cells at 3 uM incubated for 24 hrs by Annexin-V FITC and propidium iodide staining based flow cytometry analysis (reference value: 1.32 %); assay type: functional
M-HeLa [40] = experiment: Induction of mitochondrial membrane potential loss in human M-HeLa cells assessed as decrease in red fluorescence intensity by JC10 staining based flow cytometry analysis; assay type: functional, cell-based
M-HeLa [41] = experiment: Induction of apoptosis in human M-HeLa cells assessed as necrotic cells at 6 uM incubated for 24 hrs by Annexin-V FITC and propidium iodide staining based flow cytometry analysis (reference value: 1.32 %); assay type: functional
M-HeLa [42] = experiment: Induction of apoptosis in human M-HeLa cells assessed as viable cells at 6 uM incubated for 24 hrs by Annexin-V FITC and propidium iodide staining based flow cytometry analysis (reference value: 90.48 %); assay type: functional; settings: read-out: Activity

For `CCCCCCCCCCCCCCCCCC[P+](Cc1ccccc1O)(c1ccccc1)c1ccccc1.[Cl-]`, the MFC [1] was “inactive”, the hemolysis at 5 µM [2] was 0% and the hemolysis at 120 µM [3] was 15.6%. For the same molecule, the MBC (Bacillus cereus [4]) was 215 µM, the hemolysis at 40 µM [5] was 1.4% and the MIC (Bacillus cereus [6]) was 108 µM. For the same molecule, the CMC [7] was 0.04 mM, the MFC (Candida albicans [8]) was “inactive” and the “Ratio IC50” value [9] was 1.1. For the same molecule, the MIC (Staphylococcus aureus [10]) was 108 µM, the “Ratio IC50” value [11] was 1 and the IC50 [12] was 69 µM. For the same molecule, the IC50 (PANC-1) was 65 µM, the CMC [13] was 0.04 mM and the MBC (Staphylococcus aureus [14]) was “inactive”. The MBC (Staphylococcus aureus [15]) was “inactive”, the IC50 (MCF7) was 49 µM and the MIC (Candida albicans [16]) was “inactive”. The hemolysis at 10 µM [17] was 0%, the MIC [18] was “inactive” and the MIC (Staphylococcus aureus [19]) was “inactive”. The hemolysis at 480 µM [20] was 100%, the “Ratio IC50” value [21] was 0.94 and the hemolysis at 240 µM [22] was 100%. The IC50 (M-HeLa [23]) was 68 µM, the hemolysis at 60 µM [24] was 2.5% and the MIC (Staphylococcus aureus [25]) was “inactive”. The MBC (Staphylococcus aureus [26]) was 215 µM, the “Ratio IC50” value [27] was 1.4 and the hemolysis at 20 µM [28] was 1.2%. It also gave an IC50 (HepG2) of 73 µM and a hemolysis at 1 µM [29] of 0%.

`CCCCCCCCCC[P+](Cc1ccccc1O)(c1ccccc1)c1ccccc1.[Cl-]` showed an MFC [1] of 16.6 µM, a hemolysis at 5 µM [2] of 0% and a hemolysis at 120 µM [3] of 5.9%. The MBC (Bacillus cereus [4]) was 4.1 µM, the hemolysis at 40 µM [5] was 2.3% and the MIC (Bacillus cereus [6]) was 1.9 µM. For the same molecule, the MFC (Candida albicans [8]) was 16.6 µM, the “Ratio IC50” value [9] was 1.7 and the MIC (Staphylococcus aureus [10]) was 1 µM. For the same molecule, the “Ratio IC50” value [11] was 13.4, the IC50 [12] was 45.7 µM and the IC50 (PANC-1) was 26.3 µM. The Activity (Staphylococcus aureus [30]) was 24 - 82.7%, the MBC (Staphylococcus aureus [14]) was 32.8 µM and the MBC (Staphylococcus aureus [15]) was 16.4 µM. It also gave an IC50 (MCF7) of 13.2 µM, an MIC (Candida albicans [16]) of 16.6 µM and a hemolysis at 10 µM [17] of 0.8%. It also gave an MIC [18] of 16.6 µM, an MIC (Staphylococcus aureus [19]) of 8.2 µM and a hemolysis at 480 µM [20] of 16.4%. For the same molecule, the “Ratio IC50” value [21] was 3.7, the hemolysis at 240 µM [22] was 9.6% and the IC50 (M-HeLa [23]) was 3.4 µM. It also gave a hemolysis at 60 µM [24] of 2.8%, an MIC (Staphylococcus aureus [25]) of 8.2 µM and an MBC (Staphylococcus aureus [26]) of 4.1 µM. The “Ratio IC50” value [27] was 3.5, the hemolysis at 20 µM [28] was 1.3% and the IC50 (HepG2) was 12.3 µM. For the same molecule, the hemolysis at 1 µM [29] was 0%.

For `CCCCCCCCCCCC[P+](Cc1ccccc1O)(c1ccccc1)c1ccccc1.[Cl-]`, the MFC [1] was 7.8 µM, the hemolysis at 5 µM [2] was 0.9% and the hemolysis at 120 µM [3] was 21.2%. It also gave an Activity (M-HeLa [31]) of 76.61%, an MBC (Bacillus cereus [4]) of 3.8 µM and a hemolysis at 40 µM [5] of 2.9%. For the same molecule, the MIC (Bacillus cereus [6]) was 0.9 µM, the Activity (M-HeLa [32]) was 53.31% and the Activity (M-HeLa [33]) was “Dose-dependent effect”. For the same molecule, the Activity (M-HeLa [34]) was 10.89%, the MFC (Candida albicans [8]) was 7.8 µM and the “Ratio IC50” value [9] was 1.7. The MIC (Staphylococcus aureus [10]) was 1 µM, the viability at 3 µM (M-HeLa [35]) was 46.4% and the “Ratio IC50” value [11] was 16.4. The IC50 [12] was 42.8 µM, the Activity (M-HeLa [36]) was 39.17% and the IC50 (PANC-1) was 25.3 µM. For the same molecule, the Activity (Staphylococcus aureus [30]) was 24 - 82.7%, the MBC (Staphylococcus aureus [14]) was 8 µM and the MBC (Staphylococcus aureus [15]) was 16 µM. The Activity (M-HeLa [37]) was 39.26%, the IC50 (MCF7) was 7.2 µM and the MIC (Candida albicans [16]) was 7.8 µM. For the same molecule, the hemolysis at 10 µM [17] was 1.3%, the Activity (M-HeLa [38]) was 9.78% and the Activity (M-HeLa [39]) was 4.57%. For the same molecule, the MIC [18] was 7.8 µM, the MIC (Staphylococcus aureus [19]) was 4 µM and the Activity (M-HeLa [40]) was “Dose-dependent effect”. It also gave a hemolysis at 480 µM [20] of 65.4%, an Activity (M-HeLa [41]) of 2.42% and a viability at 6 µM (M-HeLa [42]) of 33.4%. The “Ratio IC50” value [21] was 4.5, the hemolysis at 240 µM [22] was 42.3% and the IC50 (M-HeLa [23]) was 2.6 µM. For the same molecule, the hemolysis at 60 µM [24] was 12.2%, the MIC (Staphylococcus aureus [25]) was 2 µM and the MBC (Staphylococcus aureus [26]) was 2 µM. The “Ratio IC50” value [27] was 5.9, the hemolysis at 20 µM [28] was 1.8% and the IC50 (HepG2) was 9.8 µM. It also gave a hemolysis at 1 µM [29] of 0%.
